Data on eight compounds can be found in patent US8299111B2, “Compounds which modulate the CB2 receptor” (Boehringer Ingelheim International GmbH, priority 2006, dated 2012).

T1 sequence (P34972 whole entry): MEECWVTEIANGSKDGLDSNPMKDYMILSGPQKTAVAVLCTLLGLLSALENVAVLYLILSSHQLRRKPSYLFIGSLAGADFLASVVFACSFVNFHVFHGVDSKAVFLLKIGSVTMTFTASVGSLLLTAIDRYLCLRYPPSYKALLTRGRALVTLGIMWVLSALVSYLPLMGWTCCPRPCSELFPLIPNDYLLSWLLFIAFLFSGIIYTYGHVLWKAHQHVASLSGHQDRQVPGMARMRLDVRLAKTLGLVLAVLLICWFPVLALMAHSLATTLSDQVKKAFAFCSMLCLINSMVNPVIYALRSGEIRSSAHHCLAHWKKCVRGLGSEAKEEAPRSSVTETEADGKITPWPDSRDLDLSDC

This assay has as its target T1, human CB2R (Homo sapiens, UniProt P34972).
T1 construct: host or cells: CHO cells
In words: CB2R mediated modulation of cAMP synthesis. Type of assay: cell-based. As to conditions: found through the use of the above described assays (binding and cAMP); CHO cells expressing human CB2R, forskolin-stimulated cAMP. The essentials:
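EC50 values reflect inhibition of cAMP made in response to 10 uM forskolin (with 1 mM IBMX, 0.25% BSA) over 30 min at 37 °C in human CB2R-expressing CHO cells. The window runs from forskolin alone to 1 uM CP55940; curves fitted with a four-parameter logistic model.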
As for `Cc1ccc(S(=O)(=O)C(C)(C)C(=O)Nc2ccc(C(F)(F)F)cn2)cc1F` [2-(3-Fluoro-4-methyl-benzenesulfonyl)-2-methyl-N-(5-trifluoromethyl-pyridin-2-yl)-propionamide], the agonistic activity entry is on record as “agonistic activity”. Under `Cc1nc(NC(=O)C(C)(C)S(=O)(=O)c2ccc(Cl)cc2)sc1C` [2-(4-Chloro-benzenesulfonyl)-N-(4,5-dimethyl-thiazol-2-yl)-2-methyl-propionamide] stands “agonistic activity”; under `CCc1sc(NC(=O)C(C)(C)S(=O)(=O)c2ccc(Cl)cc2F)nc1-c1ccccc1` [2-(4-Chloro-2-fluoro-benzenesulfonyl)-N-(5-ethyl-4-phenyl-thiazol-2-yl)-2-methyl-propionamide], “agonistic activity”. Consider `CC(C)(C(=O)Nc1ccc(C(F)(F)F)cn1)S(=O)(=O)c1ccc(C#N)cc1F` [2-(4-Cyano-2-fluoro-benzenesulfonyl)-2-methyl-N-(5-trifluoromethyl-pyridin-2-yl)-propionamide], for which the agonistic activity result is “agonistic activity”.

For `Cc1ccccc1S(=O)(=O)C(C)(C)C(=O)Nc1nc(C(C)(C)C)cs1` [N-(4-tert-Butyl-thiazol-2-yl)-2-methyl-2-(toluene-2-sulfonyl)-propionamide], the agonistic activity entry is reported as “agonistic activity”. Under `CC(C)C(C(=O)Nc1nc(C(C)(C)C)cs1)S(=O)(=O)c1ccc(C(F)(F)F)cc1` (centres unmarked) [N-(4-tert-Butyl-thiazol-2-yl)-3-methyl-2-(4-trifluoromethyl-benzenesulfonyl)-butyramide] stands “agonistic activity”. Under `COc1ccc(S(=O)(=O)C(C)(C)C(=O)Nc2cc(CC(C)(C)C)no2)cc1` [N-[3-(2,2-dimethylpropyl)isoxazol-5-yl]-2-[(4-methoxyphenyl)sulfonyl]-2-methylpropanamide] stands “agonistic activity”; under `Cc1nc(NC(=O)C(C(C)C)S(=O)(=O)c2ccc(C(F)(F)F)cc2)sc1C(C)(C)C` (centres unmarked) [N-(5-tert-Butyl-4-methyl-thiazol-2-yl)-3-methyl-2-(4-trifluoromethyl-benzenesulfonyl)-butyramide], “agonistic activity”.
